Experiments:
Jurkat [1] = test: confluency relative to DMSO, 18 h (ratio); higher = more viable
Method in brief: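 Compound was applied at 1 nM–10 µM (log10 steps) for 18 h at 37 °C, 5% CO2 to Jurkat cells or to primary CD4+/CD8+ T cells that were naive or had been activated 48 h with CD3/CD28 Dynabeads. Suspension (100 µl) was then plated in 96-well plates with IncuCyte Cytotox Dye and alamarBlue and imaged hourly over 3 h (×10, five images per well). Confluency was calculated from the IncuCyte phase-contrast images using the Basic Analyzer and normalised to the mean of the control wells.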

Jurkat [2] = test: metabolic activity relative to DMSO, 18 h (ratio); higher = more viable
Method in brief: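 Jurkat cells and primary CD4+/CD8+ T cells, naive or activated for 48 h on CD3/CD28 Dynabeads, were incubated for 18 h with compound at 1 nM–10 µM. Fluorescence was read 3.5 h after alamarBlue addition (10% v/v final) at excitation 544 nm and emission 584 nm. Metabolic activity is normalised to the mean of vehicle controls.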

Jurkat [3] = test: cytotoxicity relative to DMSO, 18 h (ratio); higher = less cell death (drugs called cytotoxic fall below 1)
Method in brief: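 The assay used Jurkat cells or naive or CD3/CD28 Dynabead-activated (48 h) primary CD4+/CD8+ T cells, incubated with compound at 1 nM–10 µM in log10 steps for 18 h at 37 °C, 5% CO2. Cytotoxicity was assessed with IncuCyte Cytotox Dye and IncuCyte fluorescence imaging, corrected for confluency and scaled to mean control signals.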

Structure (SMILES): Cc1sc2c(c1C)C(c1ccc(Cl)cc1)=NC(CC(=O)OC(C)(C)C)c1nnc(C)n1-2 (single isomer, unassigned; (+)) [(+)-JQ-1]
- confluency (Jurkat [1]; 1 nM): 1.02
- confluency (Jurkat [1]; 10 nM): 0.962
- confluency (Jurkat [1]; 100 nM): 1.02
- confluency (Jurkat [1]; 1000 nM): 1.01
- confluency (Jurkat [1]; 10000 nM): 1.02
- metabolic activity (Jurkat [2]; 1 nM): 1.05
- metabolic activity (Jurkat [2]; 10 nM): 0.989
- metabolic activity (Jurkat [2]; 100 nM): 1.13
- metabolic activity (Jurkat [2]; 1000 nM): 1.1
- metabolic activity (Jurkat [2]; 10000 nM): 0.987
- cytotoxicity (Jurkat [3]; 1 nM): 1.09
- cytotoxicity (Jurkat [3]; 10 nM): 0.985
- cytotoxicity (Jurkat [3]; 100 nM): 1.22
- cytotoxicity (Jurkat [3]; 1000 nM): 1.07
- cytotoxicity (Jurkat [3]; 10000 nM): 0.995

Structure (SMILES): Nc1ncn(C2OC(CO)C(O)C2O)c(=O)n1 (stereo not given) [5-Azacytidine]
- confluency (Jurkat [1]; 1 nM): 0.777
- confluency (Jurkat [1]; 10 nM): 0.792
- confluency (Jurkat [1]; 100 nM): 0.976
- confluency (Jurkat [1]; 1000 nM): 0.919
- confluency (Jurkat [1]; 10000 nM): 0.961
- metabolic activity (Jurkat [2]; 1 nM): 1.05
- metabolic activity (Jurkat [2]; 10 nM): 1.03
- metabolic activity (Jurkat [2]; 100 nM): 1.03
- metabolic activity (Jurkat [2]; 1000 nM): 0.994
- metabolic activity (Jurkat [2]; 10000 nM): 0.344
- cytotoxicity (Jurkat [3]; 1 nM): 0.896
- cytotoxicity (Jurkat [3]; 10 nM): 0.89
- cytotoxicity (Jurkat [3]; 100 nM): 1.12
- cytotoxicity (Jurkat [3]; 1000 nM): 1
- cytotoxicity (Jurkat [3]; 10000 nM): 1.12

Structure (SMILES): O=c1[nH]cc(F)c(=O)[nH]1 [5-Fluorouracil]
- confluency (Jurkat [1]; 1 nM): 1
- confluency (Jurkat [1]; 10 nM): 0.981
- confluency (Jurkat [1]; 100 nM): 0.992
- confluency (Jurkat [1]; 1000 nM): 0.978
- confluency (Jurkat [1]; 10000 nM): 0.996
- metabolic activity (Jurkat [2]; 1 nM): 1.03
- metabolic activity (Jurkat [2]; 10 nM): 0.913
- metabolic activity (Jurkat [2]; 100 nM): 0.967
- metabolic activity (Jurkat [2]; 1000 nM): 0.999
- metabolic activity (Jurkat [2]; 10000 nM): 0.971
- cytotoxicity (Jurkat [3]; 1 nM): 0.997
- cytotoxicity (Jurkat [3]; 10 nM): 0.931
- cytotoxicity (Jurkat [3]; 100 nM): 0.995
- cytotoxicity (Jurkat [3]; 1000 nM): 0.946
- cytotoxicity (Jurkat [3]; 10000 nM): 0.985

Structure (SMILES): O=C(NO)c1cnc(NC2(c3ccccc3)CC2)nc1 [ACY738]
- confluency (Jurkat [1]; 1 nM): 1.01
- confluency (Jurkat [1]; 10 nM): 0.994
- confluency (Jurkat [1]; 100 nM): 1.03
- confluency (Jurkat [1]; 1000 nM): 0.995
- confluency (Jurkat [1]; 10000 nM): 0.999
- metabolic activity (Jurkat [2]; 1 nM): 0.936
- metabolic activity (Jurkat [2]; 10 nM): 0.962
- metabolic activity (Jurkat [2]; 100 nM): 1.1
- metabolic activity (Jurkat [2]; 1000 nM): 0.862
- metabolic activity (Jurkat [2]; 10000 nM): 0.713
- cytotoxicity (Jurkat [3]; 1 nM): 0.969
- cytotoxicity (Jurkat [3]; 10 nM): 0.95
- cytotoxicity (Jurkat [3]; 100 nM): 1.15
- cytotoxicity (Jurkat [3]; 1000 nM): 1.05
- cytotoxicity (Jurkat [3]; 10000 nM): 0.982

Structure (SMILES): Cc1csc(-c2nnc(Nc3ccc(Oc4ncccc4-c4ccnc(N)n4)cc3)c3ccccc23)c1 [AMG-900]
- confluency (Jurkat [1]; 1 nM): 0.926
- confluency (Jurkat [1]; 10 nM): 0.91
- confluency (Jurkat [1]; 100 nM): 0.92
- confluency (Jurkat [1]; 1000 nM): 0.874
- confluency (Jurkat [1]; 10000 nM): 0.878
- metabolic activity (Jurkat [2]; 1 nM): 0.99
- metabolic activity (Jurkat [2]; 10 nM): 0.973
- metabolic activity (Jurkat [2]; 100 nM): 1.02
- metabolic activity (Jurkat [2]; 1000 nM): 0.871
- metabolic activity (Jurkat [2]; 10000 nM): 0.865
- cytotoxicity (Jurkat [3]; 1 nM): 0.919
- cytotoxicity (Jurkat [3]; 10 nM): 0.897
- cytotoxicity (Jurkat [3]; 100 nM): 0.856
- cytotoxicity (Jurkat [3]; 1000 nM): 0.848
- cytotoxicity (Jurkat [3]; 10000 nM): 0.823

Structure (SMILES): CC(C)C(C(=O)Nc1ccc(C(=O)NO)cc1)c1ccccc1 (stereo not given) [AR-42]
- confluency (Jurkat [1]; 1 nM): 0.972
- confluency (Jurkat [1]; 10 nM): 0.984
- confluency (Jurkat [1]; 100 nM): 0.941
- confluency (Jurkat [1]; 1000 nM): 0.97
- confluency (Jurkat [1]; 10000 nM): 0.97
- metabolic activity (Jurkat [2]; 1 nM): 0.942
- metabolic activity (Jurkat [2]; 10 nM): 1.02
- metabolic activity (Jurkat [2]; 100 nM): 0.934
- metabolic activity (Jurkat [2]; 1000 nM): 0.577
- metabolic activity (Jurkat [2]; 10000 nM): 0.695
- cytotoxicity (Jurkat [3]; 1 nM): 0.947
- cytotoxicity (Jurkat [3]; 10 nM): 1.02
- cytotoxicity (Jurkat [3]; 100 nM): 0.892
- cytotoxicity (Jurkat [3]; 1000 nM): 0.807
- cytotoxicity (Jurkat [3]; 10000 nM): 0.811

Structure (SMILES): Cc1ncc(-c2ccnc(Nc3ccc(S(C)(=O)=O)cc3)n2)n1C(C)C [AZD-5438]
- confluency (Jurkat [1]; 1 nM): 1.06
- confluency (Jurkat [1]; 10 nM): 1.12
- confluency (Jurkat [1]; 100 nM): 0.972
- confluency (Jurkat [1]; 1000 nM): 0.991
- confluency (Jurkat [1]; 10000 nM): 0.944
- metabolic activity (Jurkat [2]; 1 nM): 1.08
- metabolic activity (Jurkat [2]; 10 nM): 1.14
- metabolic activity (Jurkat [2]; 100 nM): 1.14
- metabolic activity (Jurkat [2]; 1000 nM): 1.08
- metabolic activity (Jurkat [2]; 10000 nM): 0.124
- cytotoxicity (Jurkat [3]; 1 nM): 0.927
- cytotoxicity (Jurkat [3]; 10 nM): 0.91
- cytotoxicity (Jurkat [3]; 100 nM): 0.951
- cytotoxicity (Jurkat [3]; 1000 nM): 1.03
- cytotoxicity (Jurkat [3]; 10000 nM): 1.02

Structure (SMILES): Cc1cc(C(C)Nc2ccccc2C(=O)O)c2nc(N3CCOCC3)cc(=O)n2c1 (stereo not given) [AZD-6482]
- confluency (Jurkat [1]; 1 nM): 1.03
- confluency (Jurkat [1]; 10 nM): 1.03
- confluency (Jurkat [1]; 100 nM): 0.994
- confluency (Jurkat [1]; 1000 nM): 0.984
- confluency (Jurkat [1]; 10000 nM): 0.928
- metabolic activity (Jurkat [2]; 1 nM): 1.16
- metabolic activity (Jurkat [2]; 10 nM): 1.14
- metabolic activity (Jurkat [2]; 100 nM): 1.03
- metabolic activity (Jurkat [2]; 1000 nM): 1.03
- metabolic activity (Jurkat [2]; 10000 nM): 0.923
- cytotoxicity (Jurkat [3]; 1 nM): 1.19
- cytotoxicity (Jurkat [3]; 10 nM): 1.22
- cytotoxicity (Jurkat [3]; 100 nM): 1.14
- cytotoxicity (Jurkat [3]; 1000 nM): 1.06
- cytotoxicity (Jurkat [3]; 10000 nM): 0.946
